The results in this text go back to patent publication US20090036499A1, “FLY CONTROL METHOD” (priority 2007, published 2009).

In this assay the test system is Adult L. serricata (blowflies). Kind of assay: Test A: adult blowflies on blood agar containing test compound, scored by number of dead flies. It counts as in vivo. The conditions noted are these: 4 flies in test. How it is done: • Adult L. serricata (blowflies): Adult flies are placed on beds of blood agar (in individual test wells; 4 flies per well) in which test compound, (3-bromo-N-[4-chloro-2-methyl-6-[(methylamino)carbonyl]phenyl]-1-(3-chloro-2-pyridinyl)-1H-pyrazole-5-carboxamide), was dissolved/suspended prior to hardening of agar. Flies can take up test compound by both ingestion and contact. Assays are scored by number of dead flies at 2 hours, 4 hours, and 24 hours.

In the case of `CCOP(=S)(OCC)Oc1nc(Cl)c(Cl)cc1Cl` [Chloropyriphos, O,O-diethyl-O-3,5,6-trichloro-2-pyridyl-phosphorothioate], the “Number dead flies at 2 hours” value is, setting by setting: (1 ppm in blood agar) 0; (10 ppm in blood agar) 1; (25 ppm in blood agar) 3; (50 ppm in blood agar) 4; (100 ppm in blood agar) 4. The “Number dead flies at 4 hours” value by setting is: (1 ppm in blood agar) 1; (10 ppm in blood agar) 4; (25 ppm in blood agar) 4; (50 ppm in blood agar) 4; (100 ppm in blood agar) 4. Moreover, the “Number dead flies at 24 hours” value runs as follows: (1 ppm in blood agar) 4; (10 ppm in blood agar) 4; (25 ppm in blood agar) 4; (50 ppm in blood agar) 4; (100 ppm in blood agar) 4.
For `CNC(=O)c1cc(Cl)cc(C)c1NC(=O)c1cc(Br)nn1-c1ncccc1Cl` [Test Compound, 3-bromo-N-[4-chloro-2-methyl-6-[(methylamino)carbonyl]phenyl]-1-(3-chloro-2-pyridinyl)-1H-pyrazole-5-carboxamide], the “Number dead flies at 2 hours” value came to 0 (1 ppm in blood agar); 0 (10 ppm in blood agar); 0 (25 ppm in blood agar); 0 (50 ppm in blood agar); 0 (100 ppm in blood agar). Further, the “Number dead flies at 4 hours” value is on record as 0 (1 ppm in blood agar); 0 (10 ppm in blood agar); 0 (25 ppm in blood agar); 0 (50 ppm in blood agar); 0 (100 ppm in blood agar). Besides, the “Number dead flies at 24 hours” value by setting is: (1 ppm in blood agar) 0; (10 ppm in blood agar) 1; (25 ppm in blood agar) 2; (50 ppm in blood agar) 2; (100 ppm in blood agar) 3.
